Results on five compounds are retold here after patent EP0536419B1, “TRICYCLIC TRIAZOLE DERIVATIVES, PRODUCTION AND USE THEREOF” (TORAY INDUSTRIES, INC., priority 1991, dated 1992).

A word on the inhibition: it is the percentage by which the read-out fell short of the control. One may read the IC50 as the concentration at which inhibition is half-maximal.

Read-outs that look alike come from different tables or passages of the source.

The test system of assay [1] is passive cutaneous anaphylaxis (PCA). The experiment in a line: Test for antiallergic action: rat passive cutaneous anaphylaxis (PCA) reaction. The assay is classed as in vivo. To be noted: rats, oral, 50 mg/kg in olive oil, 1 hour before antigen challenge, read-out: Inhibition Rate (%) Anti-PCA. The protocol: The antiallergic action was evaluated by passive cutaneous anaphylaxis (PCA) test using rats. The test was carried out using Wister male rats having body weights of 150 - 200 g. Physiological saline containing anti-dinitrophenyl group (DNP) mouse IgE monoclonal antibody (commercially available from Seikagaku Kogyo Co., Ltd.) was intracutaneously injected in the skin of the back of each rat. Twenty three hours later, a suspension of the test compound in olive oil was orally administered at a dose of 50 mg/kg to each rat. One hour later, 0.5 ml of physiological saline containing 2 mg/ml of ovalbumin modified with dinitrophenyl hapten and 1% Evans blue were administered to each rat via femoral vein. Thirty minutes later, the rat was killed by cutting the carotid artery. The skin was peeled off and the portion stained in blue was cut out. The cut out portion was minced in […] and the pigment was extracted at 60°C for 48 hours. The minced skin was removed by centrifugation (1500 x g, 10 min.) and the absorbance at 620 nm of the supernatant was measured. Based on a preliminarily prepared calibration curve, the pigment leaked to the topical portion was quantified. As a control, olive oil alone was administered and the ratio of the amount of the pigment in test groups to the amount of the pigment in control group is expressed as inhibition rate.

In assay [2] the test system is PAF-induced Bronchial Hyperresponsiveness. The experiment in a line: PAF-induced bronchial hyperresponsiveness model in guinea pigs. To be noted: oral, ratio of Ach threshold value after/before PAF inhalation. The assay is classed as in vivo. The protocol: The test was carried out using Hartley male guinea pigs having body weights of 300 - 400 g.
Guinea pigs were retained on body plethysmo boxes without anesthesia and the respiratory resistances (Rrs) were determined by osscilation method. […] The Ach threshold value which is required for the Rrs to reach 1.5 cm H2O/ml/sec was determined. […] The Ach threshold value means the value calculated taking the value when a guinea pig is made to inhale 1000 ug/ml of Ach aerosol for 1 minute as 1 unit. The above-described operation was carried out using Animal Ast (registered trademark) commercially available from Chest M. I. Co., Ltd.
By the method of A), the bronchial responsiveness of guinea pigs, that is, the Ach threshold values were determined. Subsequently, each animal was made to inhale aerosol of 100 µg/ml of PAF solution for 10 minutes. Forty minutes after the completion of the inhalation, the bronchial responsiveness was again measured by the method of A). The bronchial hyperresponsiveness was detected based on the ratio between the Ach threshold value before and after the inhalation of PAF (Ach respiration threshold value after inhalation of PAF/Ach respiration threshold value before inhalation of […]; Post/Pre value). That is, if the bronchial hyperresponsiveness is strongly promoted, the Post/Pre value is lower than 1.0, and if it is not promoted, the Post/Pre value is about 1.0. A suspension of a test compound in olive oil was orally administered to each guinea pig and the determined Post/Pre value was compared with that of the control group to which olive oil was administered to evaluate the inhibition effect. […]

For assay [3], the target named is T1, PAF receptor (Oryctolagus cuniculus, UniProt G1TEI7).
T1 construct: Cell membrane fraction of rabbit platelets was prepared; from tissue; host or cells: rabbit platelets (cell membrane fraction)
T1 sequence (G1TEI7 1-342): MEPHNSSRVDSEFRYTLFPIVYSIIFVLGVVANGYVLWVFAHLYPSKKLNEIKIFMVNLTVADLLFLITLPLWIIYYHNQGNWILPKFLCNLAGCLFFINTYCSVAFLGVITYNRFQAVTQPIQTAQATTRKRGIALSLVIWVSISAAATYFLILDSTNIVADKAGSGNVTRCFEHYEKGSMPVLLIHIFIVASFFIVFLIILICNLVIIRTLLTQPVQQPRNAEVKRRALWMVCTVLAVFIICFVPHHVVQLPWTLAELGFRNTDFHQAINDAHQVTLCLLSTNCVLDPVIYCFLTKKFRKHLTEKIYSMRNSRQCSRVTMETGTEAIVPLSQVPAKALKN
The experiment in a line: Binding test using [3H]-PAF (PAF receptor binding test). Also on record: species or system rabbit.
Protocol: Binding Test Using [^3H]-PAF (PAF receptor binding test)
Cell membrane fraction of rabbit platelets was prepared in accordance with the method by Hwang et al (Biochemistry; 22; 4756, (1983)). In 10 mM Tris buffer containing 0.25% bovine serum albumin, 50 mg of this membrane fraction was suspended and tritium-labelled PAF [^3H]-PAF; 0.4 nM) and a test compound were added thereto. After incubating the resulting mixture at 25°C for 60 minutes, the mixture was subjected to filtration through a filter paper made of glass fibers. The filter paper was washed with cold Tris buffer three times and then transferred to a vial. A scintillator was added thereto and the dose of radioactivity was measured with a liquid scintillation counter. The inhibition rate (binding ability) of the test compound was calculated according to the following equation and IC50 values were determined by interpolation. Inhibition Rate (%) = {1 - [((A - B))/((C - B))]} x 100 [formula] (wherein A represents amount bound in the presence of the compound, B represents amount bound by non-specific binding which is the dose of [^3H]-PAF bound radioactivity in the presence of 1 µM of PAF, and C represents total amount bound which is the dose of [^3H]-PAF bound radioactivity.
As a control agent, WEB2086 (Japanese Laid-open Patent Application (Kokai) No. 65-176591) disclosed as a PAF-antagonist was used.

For assay [4], the target named is rabbit platelets (Oryctolagus cuniculus, UniProt G1TEI7). The experiment in a line: in vitro platelet agglutination inhibition test (PAF-induced). The assay is classed as cell-based. To be noted: rabbit platelet-rich plasma, PAF final concentration 10 ng/ml, 37°C; read-out: PAF-Induced Platelet Aggregation IC50 (converted).
rabbit platelets, sequence (G1TEI7 1-342): as above
Assay [5] concerns histamine. The experiment in a line: Histamine-antagonizing action: histamine-induced skin pigment leakage in rats. It is filed as in vivo. To be noted: Rattus norvegicus, oral, 50 mg/kg in olive oil, 1 hour before intracutaneous histamine (50 µl of 900 µM), read-out: Inhibition Rate (%) Antihistamine. The method, then:
A suspension of a test compound in olive oil was orally administered at a dose of 50 mg/kg to each rat of the same kind as those used in 1. One hour later, physiological saline containing 1% Evans blue was intravenously administered at a dose of 3 ml/kg. Immediately thereafter, 50 µl of 900 µM histamine solution was intracutaneously administered to each rat. Thirty minutes later, the pigment in the blue-stained portion in the skin was extracted and quantified as mentioned above. Using the amount of the pigment when olive oil was administered as control, the inhibition rate which is the ratio of the amount of the pigment when the test compound was administered to the control was calculated.

Where [6] appears, read: rabbit platelet membrane fraction, [3H]-PAF 0.4 nM, 25°C, 60 minutes, read-out: Receptor Binding Inhibition IC50 (converted).

As for `Cc1nnc2n(CCCN3CCC(c4c[nH]c5ccccc45)CC3)c3ccccc3n12.O=C(O)/C=C/C(=O)O` [Compound 192, 3-methyl-9-[3-[4-(3-indolyl)piperidin-1-yl]propyl]-9H-[1,2,4]triazolo[4,3-a]benzimidazole fumaric acid salt], the inhibition at 50 mg/kg in assay [1] was 74%. The Post/Pre in assay [2] (Dose 1 mg/kg) was found to be 1.81. Moreover, in assay [3] (setting [6]), the IC50 was 1.31 µM.

Consider `Cc1nnc2n1-c1sc(CCC(=O)N3CCOCC3)cc1C(c1ccccc1Cl)=NC2` [WEB2086, reference compound], for which the Post/Pre in assay [2] (Dose 3 mg/kg) came out at 0.89. The IC50 in assay [3] is 0.11 µM.

On to `CCc1nnc2n1-c1ccccc1N(CCCN1CCC(c3c[nH]c4ccccc34)CC1)C2` [Compound 52, 1-ethyl-4,5-dihydro-5-[3-[4-(3-indolyl)piperidin-1-yl]propyl] [1,2,4]triazolo[4,3-a]quinoxaline], for which the inhibition at 50 mg/kg in assay [1] stood at 65%; in assay [5], 47%. Moreover, the IC50 in assay [4] is 12.3 µM; in assay [3] (setting [6]) it was 7.94 µM. In addition, the Post/Pre in assay [2] (Dose 1 mg/kg) is given as 1.37.

Regarding `Cc1nnc2n1-c1ccccc1N(CCCN1CCC(=C(c3ccccc3)c3ccccc3)CC1)C2` [Compound 46, 4,5-dihydro-1-methyl-5-[3-[4-(diphenylmethylene)piperidin-1-yl]propyl] [1,2,4]triazolo[4,3-a]quinoxaline], the inhibition at 50 mg/kg in assay [1] was found to be 65%; in assay [5] it was 72%. Besides, the Post/Pre in assay [2] (Dose 0.1 mg/kg) is 1.14; in assay [2] (Dose 0.3 mg/kg), 1.64. The IC50 in assay [3] (setting [6]) is 0.378 µM.

Consider `Cc1nnc2n1-c1ccccc1N(CCCN1CCC(Nc3nc4ccccc4n3Cc3ccc(F)cc3)CC1)C2` [Compound 73, 4,5-dihydro-1-methyl-5-[3-[4-[1-(4-fluorobenzyl)benzimidazol-2-ylamino]-piperidin-1-yl]propyl][1,2,4]triazolo[4,3-a] quinoxaline], for which the IC50 is 8.17 µM in assay [4] and 5.63 µM in assay [3] (setting [6]). Besides, the Post/Pre in assay [2] (Dose 1 mg/kg) worked out at 1.18.
